For orientation: IC50 means the point on the concentration scale where inhibition reaches its midpoint. Low readings indicate greater potency in that assay, high ones weaker potency in that assay.

*1 amine or outer side, *2 acyl side, *3 side chain or, on linkers, in order; H or OH if unused. Where a SMILES comes first, the peptide text is derived from it. [ ]: non-standard residue; d: D form. The star is where a group is joined. X1 = O=C(C(=O)[*:2])[C@H](CC(F)(F)F)N[*:1]; NH(1S-phenylpropyl) = CC[C@H](N*)c1ccccc1; NH(1R-phenylethyl) = C[C@@H](N*)c1ccccc1; NH(1S-phenylethyl) = C[C@H](N*)c1ccccc1; Phe(2-Me) = Cc1ccccc1C[C@H](N)C(=O)O; NleCONH2 = CCCC[C@H](N*)C(=O)C(N)=O; NH(4-OH-benzyl) = Oc1ccc(CN*)cc1; X3 = CCCC[C@@H](N*)C(=O)C(N)=O; X5 = CC[C@H](N*)c1ccc2ccccc2c1; X6 = C[C@H](N*)c1ccc2ccccc2c1; Suc = O=C(CCC(=O)[*:2])[*:1]; Tle = CC(C)(C)[C@H](N)C(=O)O; X4 = CC(C)[C@H](N*)c1ccccc1; NHBn = c1ccc(CN*)cc1; X2 = COc1cccc(CN*)c1 Some results are limits rather than exact numbers.

The values that follow come from ChEMBL document CHEMBL1134166, “The identification of alpha-ketoamides as potent inhibitors of hepatitis C virus NS3-4A proteinase” (Bioorg Med Chem Lett, 2001).

The first test concerns the target T1, Neutrophil elastase (Homo sapiens, UniProt P08246).
T1 sequence (P08246 whole entry): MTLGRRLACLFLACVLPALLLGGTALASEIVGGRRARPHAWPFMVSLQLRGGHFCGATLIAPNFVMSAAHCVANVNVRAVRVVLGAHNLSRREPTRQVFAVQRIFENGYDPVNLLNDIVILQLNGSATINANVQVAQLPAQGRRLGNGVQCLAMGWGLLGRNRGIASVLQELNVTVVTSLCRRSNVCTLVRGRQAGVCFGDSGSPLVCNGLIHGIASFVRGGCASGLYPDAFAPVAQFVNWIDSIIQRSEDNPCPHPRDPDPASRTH
The test is described as follows: Compound was tested for inhibition of Elastase.
As to `CCCC[C@@H](NC(=O)[C@H](CC(C)C)NC(=O)[C@@H](NC(=O)[C@H](Cc1ccccc1C)NC(=O)[C@H](CCC(=O)O)NC(=O)[C@H](CC(=O)O)NC(=O)CCC(=O)O)C(C)(C)C)C(=O)C(N)=O` (Suc-DE[Phe(2-Me)][Tle]L-X3), half-maximal inhibition (IC50) was put at 12000 nM.

The target of another test is Hepatitis C virus serine protease, NS3/NS4A (Hepatitis C virus, UniProt A3EZI9+D2K2A8). Nature of the test: (§1) Inhibition of hepatitis c virus Non structural protein 3 protease/Non structural protein 4A protease. In kind it is protein-complex assay, Hepacivirus hominis.
Hepatitis C virus serine protease, NS3/NS4A (Hepatitis C virus, UniProt A3EZI9+D2K2A8), sequence (D2K2A8 whole entry): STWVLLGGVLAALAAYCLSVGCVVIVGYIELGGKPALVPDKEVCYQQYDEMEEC
Hepatitis C virus serine protease, NS3/NS4A (Hepatitis C virus, UniProt A3EZI9+D2K2A8), sequence (A3EZI9 whole entry): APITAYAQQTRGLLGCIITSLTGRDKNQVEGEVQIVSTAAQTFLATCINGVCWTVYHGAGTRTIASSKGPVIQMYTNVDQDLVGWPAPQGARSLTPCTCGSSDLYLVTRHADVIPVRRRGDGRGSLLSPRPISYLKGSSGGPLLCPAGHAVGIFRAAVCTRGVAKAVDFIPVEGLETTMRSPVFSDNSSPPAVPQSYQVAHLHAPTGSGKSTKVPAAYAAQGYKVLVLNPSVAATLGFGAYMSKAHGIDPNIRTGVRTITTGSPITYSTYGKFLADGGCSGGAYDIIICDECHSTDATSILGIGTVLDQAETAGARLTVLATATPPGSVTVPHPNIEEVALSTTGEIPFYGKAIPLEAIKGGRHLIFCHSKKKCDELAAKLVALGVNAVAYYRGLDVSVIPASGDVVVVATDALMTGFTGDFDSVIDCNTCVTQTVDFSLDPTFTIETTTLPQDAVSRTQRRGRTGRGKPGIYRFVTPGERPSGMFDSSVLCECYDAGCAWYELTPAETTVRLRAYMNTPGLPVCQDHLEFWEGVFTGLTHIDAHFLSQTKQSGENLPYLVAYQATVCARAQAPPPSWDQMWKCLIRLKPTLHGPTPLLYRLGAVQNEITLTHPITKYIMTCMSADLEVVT
The compound `CCCC[C@H](NC(=O)[C@H](CC(C)C)NC(=O)[C@@H](NC(=O)[C@H](Cc1ccccc1C)NC(=O)[C@H](CCC(=O)O)NC(=O)[C@H](CC(=O)O)NC(=O)CCC(=O)O)C(C)(C)C)C(=O)C(N)=O` (Suc-DE[Phe(2-Me)][Tle]L-NleCONH2) had an IC50 of 11 nM. In other words, the double-digit nanomolar range.

In a further test the target is Hepatitis C virus serine protease, NS3/NS4A (Hepatitis C virus, UniProt D2K2A8+A3EZI9). The description is as §1. In kind it is protein-complex assay, Hepacivirus hominis.
Hepatitis C virus serine protease, NS3/NS4A (Hepatitis C virus, UniProt D2K2A8+A3EZI9), sequence (D2K2A8 whole entry): as the sequence (D2K2A8 whole entry) above
Hepatitis C virus serine protease, NS3/NS4A (Hepatitis C virus, UniProt D2K2A8+A3EZI9), sequence (A3EZI9 whole entry): as the sequence (A3EZI9 whole entry) above
Turning to `Cc1ccccc1C[C@H](NC(=O)[C@H](CCC(=O)O)NC(=O)[C@H](CC(=O)O)NC(=O)CCC(=O)O)C(=O)N[C@H](C(=O)N[C@@H](CC(C)C)C(=O)N[C@@H](CC(F)(F)F)C(=O)C(=O)N[C@H](c1ccccc1)C(C)C)C(C)(C)C` (Suc-DE[Phe(2-Me)][Tle]L[X1]-X4), the midpoint of inhibition, the IC50, lay at 7 nM. This counts as single-digit nanomolar.
As to `CC[C@H](NC(=O)C(=O)[C@H](CC(F)(F)F)NC(=O)[C@H](CC(C)C)NC(=O)[C@@H](NC(=O)[C@H](Cc1ccccc1C)NC(=O)[C@H](CCC(=O)O)NC(=O)[C@H](CC(=O)O)NC(=O)CCC(=O)O)C(C)(C)C)c1ccccc1` (Suc-DE[Phe(2-Me)][Tle]L[X1]-{NH(1S-phenylpropyl)}), inhibition was half-maximal at 7 nM (IC50).
The same measure, in the same setting: in the case of `Cc1ccccc1C[C@H](NC(=O)[C@H](CCC(=O)O)NC(=O)[C@H](CC(=O)O)NC(=O)CCC(=O)O)C(=O)N[C@H](C(=O)N[C@@H](CC(C)C)C(=O)N[C@@H](CC(F)(F)F)C(=O)C(=O)N[C@@H](C)c1ccc2ccccc2c1)C(C)(C)C` (Suc-DE[Phe(2-Me)][Tle]L[X1]-X6) it was 4 nM.
Still for that read-out and setting: in the case of `Cc1ccccc1C[C@H](NC(=O)[C@H](CCC(=O)O)NC(=O)[C@H](CC(=O)O)NC(=O)CCC(=O)O)C(=O)N[C@H](C(=O)N[C@@H](CC(C)C)C(=O)N[C@@H](CC(F)(F)F)C(=O)C(=O)N[C@H](C)c1ccccc1)C(C)(C)C` (Suc-DE[Phe(2-Me)][Tle]L[X1]-{NH(1R-phenylethyl)}) it was 1100 nM; in that of `Cc1ccccc1C[C@H](NC(=O)[C@H](CCC(=O)O)NC(=O)[C@H](CC(=O)O)NC(=O)CCC(=O)O)C(=O)N[C@H](C(=O)N[C@@H](CC(C)C)C(=O)N[C@@H](CC(F)(F)F)C(=O)C(=O)N[C@@H](C)c1ccccc1)C(C)(C)C` (Suc-DE[Phe(2-Me)][Tle]L[X1]-{NH(1S-phenylethyl)}), 4 nM.
On the same count and under the same terms, the value for `Cc1ccccc1C[C@H](NC(=O)[C@H](CCC(=O)O)NC(=O)[C@H](CC(=O)O)NC(=O)CCC(=O)O)C(=O)N[C@H](C(=O)N[C@@H](CC(C)C)C(=O)N[C@@H](CC(F)(F)F)C(=O)C(=O)NCc1ccccc1)C(C)(C)C` (Suc-DE[Phe(2-Me)][Tle]L[X1]-NHBn) was 4 nM.
The compound `Cc1ccccc1C[C@H](NC(=O)[C@H](CCC(=O)O)NC(=O)[C@H](CC(=O)O)NC(=O)CCC(=O)O)C(=O)N[C@H](C(=O)N[C@@H](CC(C)C)C(=O)N[C@@H](CC(F)(F)F)C(=O)C(=O)NCc1ccc(O)cc1)C(C)(C)C` (Suc-DE[Phe(2-Me)][Tle]L[X1]-{NH(4-OH-benzyl)}) returned a concentration for half-maximal inhibition (IC50) of 4 nM. In other words, the single-digit nanomolar range.
Take `CC[C@H](NC(=O)C(=O)[C@H](CC(F)(F)F)NC(=O)[C@H](CC(C)C)NC(=O)[C@@H](NC(=O)[C@H](Cc1ccccc1C)NC(=O)[C@H](CCC(=O)O)NC(=O)[C@H](CC(=O)O)NC(=O)CCC(=O)O)C(C)(C)C)c1ccc2ccccc2c1` (Suc-DE[Phe(2-Me)][Tle]L[X1]-X5): the IC50 turned out to be 8 nM.
In turn, `COc1cccc(CNC(=O)C(=O)[C@H](CC(F)(F)F)NC(=O)[C@H](CC(C)C)NC(=O)[C@@H](NC(=O)[C@H](Cc2ccccc2C)NC(=O)[C@H](CCC(=O)O)NC(=O)[C@H](CC(=O)O)NC(=O)CCC(=O)O)C(C)(C)C)c1` (Suc-DE[Phe(2-Me)][Tle]L[X1]-X2) came in with a half-maximal inhibitory concentration (IC50) of 6 nM. This IC50 and that of the compound before are within 1.5-fold of each other.

Another test addresses Trypsin (Homo sapiens, UniProt P07477+P07478+P35030). The test is described as follows: Compound was tested for inhibition of trypsin. In kind it is protein assay.
Take `CCCC[C@H](NC(=O)[C@H](CC(C)C)NC(=O)[C@@H](NC(=O)[C@H](Cc1ccccc1C)NC(=O)[C@H](CCC(=O)O)NC(=O)[C@H](CC(=O)O)NC(=O)CCC(=O)O)C(C)(C)C)C(=O)C(N)=O` (Suc-DE[Phe(2-Me)][Tle]L-NleCONH2): the concentration for half-maximal inhibition (IC50) is > 200000 nM.
